In PubChem BioAssay AID248 (DTP/NCI, 2004):
Values joined by “and” are separate entries in the source; they are usually repeats but may differ in a detail not shown here. Equal values may be shown once. Toxic doses and inconclusive results are not listed. Cut-off read from the data, not from the text of the source: active = T/C of 150% or more; inactive = T/C below 125%.

Tested on: L1210 leukemia ip in BDF1 mice, survival T/C
Experiment: NCI In Vivo Anticancer Drug Screen. Data for tumor model L1210 Leukemia (intraperitoneal) in B6D2F1 (BDF1) mice
Details: endpoint: mean survival time, higher = longer survival
In short: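 Value reflects the ratio of survival in compound-treated mice to survival in vehicle-treated controls, with both groups carrying the same transplanted tumor.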

[1] = dose: 100.0 mg/kg/injection, schedule: Q04DX002 (ip), vehicle: Klucel (hydroxypropylcellulose) (HPC)
[2] = dose: 200.0 mg/kg/injection, schedule: Q04DX002 (ip), vehicle: Klucel (hydroxypropylcellulose) (HPC)
[3] = dose: 400.0 mg/kg/injection, schedule: Q04DX002 (ip), vehicle: Klucel (hydroxypropylcellulose) (HPC)
[4] = dose: 50.0 mg/kg/injection, schedule: Q01DX009 (ip), vehicle: saline
[5] = dose: 100.0 mg/kg/injection, schedule: Q01DX009 (ip), vehicle: saline
[6] = dose: 100.0 mg/kg/injection, schedule: Q04DX003 (ip), vehicle: saline with Tween-80
[7] = dose: 200.0 mg/kg/injection, schedule: Q01DX009 (ip), vehicle: saline
[8] = dose: 200.0 mg/kg/injection, schedule: Q04DX003 (ip), vehicle: saline with Tween-80
[9] = dose: 100.0 mg/kg/injection, schedule: Q01DX009 (ip), vehicle: saline with Tween-80
[10] = dose: 200.0 mg/kg/injection, schedule: Q01DX009 (ip), vehicle: saline with Tween-80
[11] = dose: 50.0 mg/kg/injection, schedule: Q01DX009 (ip), vehicle: Klucel (hydroxypropylcellulose) (HPC)
[12] = dose: 100.0 mg/kg/injection, schedule: Q01DX009 (ip), vehicle: Klucel (hydroxypropylcellulose) (HPC)
[13] = dose: 100.0 mg/kg/injection, schedule: Q04DX003 (ip), vehicle: Klucel (hydroxypropylcellulose) (HPC)
[14] = dose: 200.0 mg/kg/injection, schedule: Q01DX009 (ip), vehicle: Klucel (hydroxypropylcellulose) (HPC)
[15] = dose: 200.0 mg/kg/injection, schedule: Q04DX003 (ip), vehicle: Klucel (hydroxypropylcellulose) (HPC)
[16] = dose: 400.0 mg/kg/injection, schedule: Q01DX009 (ip), vehicle: Klucel (hydroxypropylcellulose) (HPC)
[17] = dose: 400.0 mg/kg/injection, schedule: Q04DX003 (ip), vehicle: Klucel (hydroxypropylcellulose) (HPC)
[18] = dose: 12.5 mg/kg/injection, schedule: Q04DX003 (ip), vehicle: saline
[19] = dose: 25.0 mg/kg/injection, schedule: Q04DX003 (ip), vehicle: saline
[20] = dose: 50.0 mg/kg/injection, schedule: Q04DX003 (ip), vehicle: saline
[21] = dose: 100.0 mg/kg/injection, schedule: Q04DX003 (ip), vehicle: saline
[22] = dose: 25.0 mg/kg/injection, schedule: Q01DX009 (ip), vehicle: saline

Measured: T/C

c1ccc(N2CNN(c3ccccc3)CN2)cc1
inactive: dose: 100.0 mg/kg/injection, schedule: Q01DX001 (ip), vehicle: carboxymethylcellulose (CMC) 86 % of control | dose: 200.0 mg/kg/injection, schedule: Q01DX001 (ip), vehicle: carboxymethylcellulose (CMC) 90 % of control | dose: 400.0 mg/kg/injection, schedule: Q01DX001 (ip), vehicle: carboxymethylcellulose (CMC) 95 % of control

CC1CCCC(C)[N+]1=C(Nc1cccc(Cl)c1)c1ccccc1 (stereo unspecified)
inactive: [1] 97 % of control | [2] 106 % of control | [3] 101 % of control

CCC(C)OC(=O)C(C)OC(=O)OCCOCCOC(=O)OC(C)C(=O)OC(C)CC (stereo unspecified)
inactive: dose: 100.0 mg/kg/injection, schedule: Q01DX001 (ip), vehicle: saline 96 % of control | dose: 200.0 mg/kg/injection, schedule: Q01DX001 (ip), vehicle: saline 100 % of control | dose: 400.0 mg/kg/injection, schedule: Q01DX001 (ip), vehicle: saline 96 % of control

N#Cc1cccnc1
inactive: [4] 97 % of control | [5] 110 % of control | [6] 90 % of control | [7] 108 % of control | [8] 102 % of control | dose: 400.0 mg/kg/injection, schedule: Q04DX003 (ip), vehicle: saline with Tween-80 104 % of control

O=P(O)(c1ccccc1)c1ccccc1
inactive: [1] 102 % of control and 86 % of control | [2] 93 % of control and 89 % of control | [3] 96 % of control

CNC(=O)Oc1ccc(NC(=O)OC)cc1
inactive: [6] 93 % of control | [8] 87 % of control

CS(=O)(=O)c1nc2ccccc2[nH]1
inactive: [1] 105 % of control | [2] 97 % of control

COc1ccccc1N=Nc1cc(C)c(C)cc1O
inactive: dose: 50.0 mg/kg/injection, schedule: Q01DX009 (ip), vehicle: saline with Tween-80 106 % of control | [9] 103 % of control | [10] 95 % of control

CN(CCC(=O)c1cccc2ccccc12)Cc1ccccc1
inactive: [11] 98 % of control | [12] 97 % of control | [13] 100 % of control | [14] 92 % of control | [15] 91 % of control | [16] 95 % of control | [17] 100 % of control

O=C(C1=NNC(c2ccccc2)C1C(=O)c1ccccc1)c1ccccc1 (stereo unspecified)
inactive: dose: 100.0 mg/kg/injection, schedule: Q01DX001 (ip), vehicle: steriod suspending solution 93 % of control | dose: 200.0 mg/kg/injection, schedule: Q01DX001 (ip), vehicle: steriod suspending solution 110 % of control | dose: 400.0 mg/kg/injection, schedule: Q01DX001 (ip), vehicle: steriod suspending solution 101 % of control

O=C(O)CCNCCO
inactive: [5] 98 % of control | [7] 98 % of control

CCOC(=O)CCN(C)C
inactive: [5] 104 % of control | [7] 101 % of control | dose: 400.0 mg/kg/injection, schedule: Q01DX009 (ip), vehicle: saline 98 % of control

CCCC/C=C1\CCCC(C)C1 (stereo unspecified)
inactive: dose: 100.0 mg/kg/injection, schedule: Q04DX002 (ip), vehicle: saline 101 % of control | dose: 200.0 mg/kg/injection, schedule: Q04DX002 (ip), vehicle: saline 101 % of control | dose: 400.0 mg/kg/injection, schedule: Q04DX002 (ip), vehicle: saline 97 % of control

CCOc1nc(N)nc(N)c1-c1ccccc1
inactive: dose: 100.0 mg/kg/injection, schedule: Q04DX002 (ip), vehicle: saline with Tween-80 111 % of control | dose: 200.0 mg/kg/injection, schedule: Q04DX002 (ip), vehicle: saline with Tween-80 96 % of control | dose: 400.0 mg/kg/injection, schedule: Q04DX002 (ip), vehicle: saline with Tween-80 100 % of control

CN(C)CCN1c2ccccc2Sc2ccccc21
inactive: [18] 97 % of control | [19] 108 % of control | [20] 103 % of control | [21] 101 % of control

Cc1c(CNc2ccc(Cl)c(C(=O)NC(CC(=O)O)C(=O)O)c2)ccc2nc(N)nc(N)c12 (stereo unspecified)
active: dose: 12.5 mg/kg/injection, schedule: Q01DX009 (ip), vehicle: Klucel (hydroxypropylcellulose) (HPC) 160 % of control | [11] 168 % of control | [5] 162 % of control
inactive: dose: 1.5 mg/kg/injection, schedule: Q01DX009 (ip), vehicle: Klucel (hydroxypropylcellulose) (HPC) 110 % of control | dose: 3.0 mg/kg/injection, schedule: Q01DX009 (ip), vehicle: Klucel (hydroxypropylcellulose) (HPC) 115 % of control | dose: 3.13 mg/kg/injection, schedule: Q01DX009 (ip), vehicle: Klucel (hydroxypropylcellulose) (HPC) 120 % of control | dose: 6.0 mg/kg/injection, schedule: Q01DX009 (ip), vehicle: Klucel (hydroxypropylcellulose) (HPC) 110 % of control and 92 % of control | [12] 97 % of control and 100 % of control | dose: 267.0 mg/kg/injection, schedule: Q01DX001 (ip), vehicle: saline 122 % of control

COc1cc(Cl)ccc1NC(=O)Oc1ccc(OCc2ccccc2)cc1
inactive: [12] 94 % of control | [14] 94 % of control | [16] 97 % of control

CCC(=O)NCC(=O)O
inactive: dose: 6.25 mg/kg/injection, schedule: Q01DX009 (ip), vehicle: saline 103 % of control | dose: 6.25 mg/kg/injection, schedule: Q04DX003 (ip), vehicle: saline 96 % of control | dose: 12.5 mg/kg/injection, schedule: Q01DX009 (ip), vehicle: saline 95 % of control | [18] 96 % of control | [22] 92 % of control | [19] 100 % of control

C/C(=N/NC(=O)CNC(=O)c1ccccc1)c1ccc2ccccc2c1
inactive: [9] 87 % of control | [10] 100 % of control

O=C(Nc1ccc(C2=NCCN2)c(Cl)c1)c1cccc(C(=O)Nc2ccc(C3=NCCN3)c(Cl)c2)c1
inactive: dose: 15.0 mg/kg/injection, schedule: Q01DX Z (ip), vehicle: carboxymethylcellulose (CMC) 93 % of control | dose: 30.0 mg/kg/injection, schedule: Q01DX Z (ip), vehicle: carboxymethylcellulose (CMC) 86 % of control

Cc1ccc(S(=O)(=O)CC(O)(/C=C/c2ccccc2)c2ccccc2)cc1 (stereo unspecified)
inactive: dose: 100.0 mg/kg/injection, schedule: Q01DX001 (ip), vehicle: acetone 98 % of control | dose: 200.0 mg/kg/injection, schedule: Q01DX001 (ip), vehicle: acetone 93 % of control | dose: 400.0 mg/kg/injection, schedule: Q01DX001 (ip), vehicle: acetone 89 % of control

O=C(Nc1cccc(O)c1)Nc1ccc(Cl)cc1[N+](=O)[O-]
inactive: [12] 102 % of control | [14] 101 % of control

CCOc1ccccc1NC(c1ccc(OC)cc1)P(=O)(c1ccccc1)c1ccccc1 (stereo unspecified)
inactive: [13] 101 % of control | [15] 101 % of control | [17] 92 % of control

O=C(NC1CCCCC1)c1ccc(C(=O)NC2CCCCC2)cc1
inactive: [1] 94 % of control | [2] 102 % of control | [3] 91 % of control

CCCCCCCCCCCCCCCCCCNC(=O)Nc1ccc(OC)cc1
inactive: [1] 93 % of control | [2] 104 % of control | [3] 93 % of control

COc1c2c(cc3c1C(Cl)N(C)CC3)OCO2 (stereo unspecified)
inactive: [22] 98 % of control | [19] 103 % of control | [4] 104 % of control | [20] 97 % of control | [21] 98 % of control and 102 % of control

CCCCn1c(C)nc2c([N+](=O)[O-])cc(C(F)(F)F)cc21
inactive: dose: 100.0 mg/kg/injection, schedule: Q01DX001 (ip), vehicle: Klucel (hydroxypropylcellulose) (HPC) 104 % of control | dose: 400.0 mg/kg/injection, schedule: Q01DX001 (ip), vehicle: Klucel (hydroxypropylcellulose) (HPC) 98 % of control

Oc1cccc(C2=NNC(c3cccc(O)c3)=NN2)c1
inactive: dose: 100.0 mg/kg/injection, schedule: Q04DX003 (ip), vehicle: gum acacia 93 % of control | dose: 200.0 mg/kg/injection, schedule: Q04DX003 (ip), vehicle: gum acacia 89 % of control | dose: 400.0 mg/kg/injection, schedule: Q04DX003 (ip), vehicle: gum acacia 86 % of control
